Like-named read-outs stand apart in the source and are kept apart here.
Experiments:
[1] = set-up: method as in PMID 22108178; conditions: healthy female volunteers; cited from earlier work
[2] = cited from earlier work; for Solubility (pH 6.5): ref [30]; for Solubility (pH 6.5) / pKa (base), literature: [34]; for Solubility (pH 6.5) / pKa (base), literature / pKa (acid): [38] of supplement (ChemAxon Chemicalize); for pKa (base), literature: ref [23], [30]; for pKa (acid): ref [34]
[3] = set-up: method as in ref [35] of supplement; conditions: ref [35] of supplement; cited from earlier work
[4] = system: CYP2D6; conditions: cited from earlier work; for Km: literature value adapted with fu,inc
[5] = Pharmacokinetic panel study in CYP2D6-genotyped healthy female volunteers (observed plasma AUClast/Cmax, DGI and DD(G)I with clarithromycin or paroxetine); type: in vivo, human; conditions: for order of AUClast across CYP2D6 phenotypes: DGI setting
Protocol: Clinical data from a recently performed pharmacokinetic panel study (EudraCT-Nr.: 2009-014531-20, ClinicalTrails.gov: NCT01289756) were used for PBPK model development. The study protocol, patient information sheet and consent form were approved by the Ethics Committee of the University of Tübingen and the German Federal Institute for Drugs and Medical Devices (BfArM). All study participants had signed an informed consent form.
The study was conducted in 20 healthy, Caucasian, premenopausal female volunteers that were genotyped for CYP2D6 polymorphisms and subsequently assigned to predicted phenotypes according to the respective CYP2D6 activity score (AS) as depicted in Table 1 [17, 18]. […] After a wash-out phase of at least three weeks, clomiphene was administered concomitantly with the strong CYP3A4 inhibitor clarithromycin [19]. Here, the participants received 500 mg clarithromycin twice daily for four days. On day 5, a single dose of clomiphene citrate was administered together with 500 mg clarithromycin. Finally, in the third period, all subjects received clomiphene citrate together with the strong CYP2D6 inhibitor paroxetine. Here, 40 mg paroxetine was administered once daily for two days. On day 3, participants received a single dose of clomiphene citrate concomitantly with 40 mg paroxetine (Figure 1).
For the evaluation of DGI and DD(G)I effects, the predicted AUClast and Cmax effect ratios were calculated according to Equations (4) and (5) and compared with the corresponding observed values. Here, model performance was assessed using the prediction acceptance limits proposed by Guest et al. with 1.25-fold variability. (4) AUClast, AS=i ratio=AUClast, effect, AS=i/AUClast, control (5) Cmax, AS=i ratio=Cmax, effect, AS=i/Cmax, control
For the calculation of DGI ratios, AUClast, effect, AS=i and Cmax, effect, AS=i represent the AUClast and Cmax for CYP2D6 AS = i, while AUClast, control and Cmax, control are the AUClast and Cmax values for the NM (AS = 2) population. For the calculation of DD(G)I ratios, AUClast, effect, AS=i and Cmax, effect, AS=i represent the AUClast and Cmax for the CYP2D6 AS = i in the DD(G)I scenario with clarithromycin or paroxetine, while AUClast, control and Cmax, control are the AUClast and Cmax values for the CYP2D6 AS = i without the concomitant use of perpetrator drugs.

[6] = system: CYP2D6; assay: In vitro scaling factors from CYP2D6 activity score-specific in vitro metabolite formation rates; type: in vitro ADME, human
From the text: Here, kcat, AS=i represents the catalytic rate constant for CYP2D6 AS = i, kcat, AS=2 is the catalytic rate constant for the NM population and IVSFi is the corresponding in vitro scaling factor (IVSF).
S2. Drug-Gene-Interaction (DGI) Modeling
S2.1. CYP2D6 in vitro Scaling Factors
The estimated CYP2D6 kcat values for the NM population were extrapolated to the intermediate metabolizers (IM) (AS=0.5, AS=0.75 and AS=1) and ultrarapid metabolizers (UM) populations according to Equation 1 in the main manuscript, using in vitro scaling factors (IVSFs). Determination of IVSFs were based on AS-specific in vitro metabolite formation rates relative to the corresponding formation rate in NM as a reference. The respective IVSFs for each CYP2D6-dependent pathway are depicted in Table S8. Measured in vitro data for (E)-4-OH-Clom and (E)-4-OH-DE-Clom AS-specific formation rates were available, while mean values were assumed for the remaining CYP2D6-dependent metabolic pathways.
Table S8. Employed in vitro scaling factors (IVSFs) for individual CYP2D6 activity scores. […]

[7] = target: estrogen receptor; conditions: read-out: half-maximal inhibitory concentration towards the estrogen receptor; cited from earlier work
[8] = system: CYP3A4; set-up: method as in ref [17, 18] of supplement; conditions: ref [17, 18] of supplement, cited from earlier work; for Km: literature value adapted with fu,inc
[9] = system: CYP2D6; assay: PBPK model: CYP2D6-mediated metabolism (Km, kcat, contribution); set-up: species or system human; conditions: Assumed equal to Km of CYP2D6-mediated hydroxylation of (E)-4-OH-Clom, adapted with fu,inc=0.243; read-out: CYP2D6 Km → undef., assumed
From the text: An additional biotransformation process via CYP2B6 to (E)-4-OH-Clom was implemented to cover the fraction of CYP2D6-independent metabolism observed in the PM population and in CYP2D6 DD(G)I scenarios.
(E)-4-OH-Clom is metabolized via CYP2D6 to (Z)-3,4-dihydroxyclomiphene (implemented as an undefined metabolite), via an unspecific hepatic clearance mechanism and via CYP3A4 to the second active metabolite (E)-4-OH-DE-Clom. (E)-4-OH-DE-Clom is also formed via CYP2D6 metabolism of (E)-DE-Clom, which in turn, represents the main route of elimination of (E)-DE-Clom. Furthermore, (E)-DE-Clom is metabolized to minor extents through CYP2D6 and CYP3A4 to (E)-N,N-didesethylclomiphene (implemented as an undefined metabolite). The metabolism of (E)-4-OH-DE-Clom has not been extensively investigated, yet. According to work by Kröner, (E)-4-OH-DE-Clom is presumably metabolized through a CYP-mediated pathway to (Z)-3,4-dihydroxydesethyl-clomiphene. […]
This was integrated by accounting for the 80:20 metabolic ratio of CYP3A4 to CYP2D6 reported by Mazzarino and coworkers. […] As previously described, the ratio of the corresponding measured in vitro metabolic enzyme activities was used dur-ing the parameter estimation step for optimization of kcat values (kcat, CYP3A4 = 0.13 * kcat, CYP2D6)

[10] = cited from earlier work
[11] = ref [19] ((E)-Clom, (E)-4-OH-Clom), [17, 18] ((E)-DE-Clom) of supplement, read-out: CYP2D6 Km → undef.

SMILES | maximum plasma concentration (Cmax) in CYP2D6 PM compared with NM [1] | Solubility (pH 6.5) [2] | pKa (base), literature [2] | pKa (acid) [2] | Km [4, 11] | order of AUClast across CYP2D6 phenotypes [5] | observed AUClast effect ratio in clarithromycin DDGI scenario vs control ([5]; PM) | IVSF, CYP2D6-mediated pathway → undef. ([6]; AS=0, mean value assumed) | IVSF, CYP2D6-mediated pathway → undef. ([6]; AS=0.5, mean value assumed) | IVSF, CYP2D6-mediated pathway → undef. ([6]; AS=0.75, mean value assumed) | IVSF, CYP2D6-mediated pathway → undef. ([6]; AS=1, mean value assumed) | IVSF, CYP2D6-mediated pathway → undef. ([6]; AS=2 (NM, reference)) | IVSF, CYP2D6-mediated pathway → undef. ([6]; AS=3, mean value assumed) | IC50 [7] | also measured
CCN(CC)CCOc1ccc(/C(=C(/Cl)c2ccccc2)c2ccc(O)cc2)cc1 [(E)-4-OH-Clom, (E)-4-hydroxyclomiphene] | approximately ten-fold lower | 0.06 mg/ml | 9.41 | 8.64 | 3.6 µM | AUCIM (AS = 0.5) > AUCNM > AUCUM > AUCPM | ~ 1.3 fold | 0 | 0.17 | 0.23 | 0.51 | 1 | 1.41 | 2.2 nM | fu (fraction unbound), literature [3]: 0.6%; Cmax change due to inhibition of CYP2D6 by paroxetine ([5]; all phenotypes except for PM): decreased; AUClast change during CYP3A4 inhibition ([5]; clarithromycin, all phenotypes): slight increase; Km ([8]; read-out: CYP3A4 Km → (E)-4-OH-DE-Clom): 3.4 µM
CCNCCOc1ccc(/C(=C(/Cl)c2ccccc2)c2ccccc2)cc1 [(E)-DE-Clom, (E)-N-desethylclomiphene] | – | 0.46 mg/ml | 9.59 | – | 0.97 µM | – | – | 0 | 0.17 | 0.23 | 0.51 | 1 | 1.41 | – | CYP2D6 contribution to the formation of the desethyl metabolite ([4]; as incorporated in the model): ~ 20%; Km ([4]; ref [17, 18] of supplement, read-out: CYP2D6 Km → (E)-4-OH-DE-Clom): 0.49 µM; AUClast reduction during concomitant clarithromycin ([5]; PM): ~ 34%; IVSF, CYP2D6-mediated pathway → (E)-4-OH-DE-Clom ([6]; AS=0, relative to NM, from in vitro formation rates, supplement ref [17]): 0; IVSF, CYP2D6-mediated pathway → (E)-4-OH-DE-Clom ([6]; AS=0.5, relative to NM, from in vitro formation rates, supplement ref [17]): 0.16; IVSF, CYP2D6-mediated pathway → (E)-4-OH-DE-Clom ([6]; AS=0.75, relative to NM, from in vitro formation rates, supplement ref [17]): 0.19; IVSF, CYP2D6-mediated pathway → (E)-4-OH-DE-Clom ([6]; AS=1, relative to NM, from in vitro formation rates, supplement ref [17]): 0.44; IVSF, CYP2D6-mediated pathway → (E)-4-OH-DE-Clom ([6]; AS=2 (NM, reference)): 1; IVSF, CYP2D6-mediated pathway → (E)-4-OH-DE-Clom ([6]; AS=3, relative to NM, from in vitro formation rates, supplement ref [17]): 1.30; ratio kcat,CYP3A4 / kcat,CYP2D6 for metabolism to (E)-N,N-didesethylclomiphene ([8]; from measured in vitro metabolic enzyme activities): 0.13; Km ([8]; read-out: CYP3A4 Km → undef.): 0.97 µM
CCNCCOc1ccc(/C(=C(/Cl)c2ccccc2)c2ccc(O)cc2)cc1 [(E)-4-OH-DE-Clom, (E)-4-hydroxy-N-desethylclomiphene] | approximately ten-fold lower | 0.17 mg/ml | 9.65 | 8.69 | – | AUCIM (AS = 0.5) > AUCNM > AUCUM > AUCPM | ~ 0.6 fold | 0 | 0.17 | 0.23 | 0.51 | 1 | 1.41 | 0.9 nM | logP (lipophilicity), literature ([2]; ref [23, 25-27], [30, 31], [25, 34], [38] of supplement): 4.47; Km [9]: 8.86 µM; observed DGI AUClast effect ratio ([5]; IM (AS = 1) vs NM): ~ 0.8
CCN(CC)CCOc1ccc(C(=C(Cl)c2ccccc2)c2ccccc2)cc1 [clomiphene, Clomiphene] | – | – | – | – | – | – | – | – | – | – | – | – | – | – | response to clomiphene therapy ([10]; CYP2D6 IM): all CYP2D6 intermediate metabolizers (IM) responded; non-responders to clomiphene therapy ([10]; CYP2D6 NM): 30%; women who do not respond during clomiphene therapy [10]: 8–54%
